A short description of data set [1]: In vitro cytotoxicity assay (sulforhodamine B staining). Format: cell-based, human. To be noted: human. Here is the method:
(§1) Reversal of resistance was determined in cytotoxicity assays using the sulforhodamine staining (Skehan et al. (1990) J. Natl. […] Briefly, cells were harvested and seeded at a density of 2000 cells/well for the colon cancer lines and 4000 cells/well for the breast cancer cell lines in flat-bottom 96-well plates. The cells were incubated for 24 h at 37° C. to allow attachment prior to addition of the drugs. […] Each concentration was tested in triplicate and the controls were done in replicates of eight. Results are representative of from three to six experiments. […] After incubation, the cells were fixed in TCA and stained with sulforhodamine B (SRB) solution (0.4% wt/vol in 1% acetic acid) (Sigma Chemical, St Louis, Mo.). Optical densities were read on a Bio-Rad plate reader (Hercules, Calif.) at an absorbance of 540 nm.

The test system of data set [2] is S1 parental cells. The data set is described as above. It is filed as cell-based, human. To be noted: Homo sapiens, read-out: IC50 for GF120918 alone; S1 parental cells. On the procedure: as §1
In data set [3] the test system is MCF-7 parental cells. Described as above. Format: cell-based, human. The following applies: Homo sapiens, MCF7, read-out: IC50 for GF120918 alone; MCF-7 parental cells. On the procedure: as §1
Data set [4] concerns S1-B1-20 Pgp-overexpressing cells. Described as above. Format: cell-based, human. The following applies: GF120918 at 1 μM, Pgp-expressing S1-B1-20 cells. Here is the method: as §1
In data set [5] the target is Pgp (Homo sapiens, UniProt P08183). The following applies: reported in literature; cited from earlier work.
Data set [6] relates to MCF-7 parental cells. Description: Rhodamine efflux assay (flow cytometry). It is filed as cell-based, human. On the procedure: To provide confirmation, rhodamine efflux assays were performed. […] The results are depicted in FIG. 2.
Data set [7] concerns S1 parental cells (low endogenous level of Pgp). Description: Rhodamine efflux assay (flow cytometry). Format: cell-based, human. On the procedure:
(§2) The rhodamine and calcein efflux assays were performed as previously described with minor modifications (Lee et al. (1994) Mol. Pharmacol. 46: 627-638; Versantvoort et al. (1995) Int. J. Cancer 63: 855-862.) Suspensions of logarithmic phase cells were obtained from tissue culture flasks by trypsinization and transferred into round-bottom 96-well plates. […] After the efflux period, the cells were washed with DPBS and placed on ice. A FACSort flow cytometer (Becton Dickinson, San Jose, Calif.) with a 488-nm argon laser was used to analyze the samples. Rhodamine 123 or calcein fluorescence was collected after a 530 nm bandpass filter. A minimum of 10,000 events was collected per sample and the samples were gated on forward scatter versus side scatter to exclude clumps and debris; dead cells were excluded based on propidium iodide staining.
(§3) To provide confirmation, rhodamine efflux assays were performed. […] After an accumulation and efflux period, rhodamine fluorescence was quantitated by flow cytometric analysis. The results are depicted in FIG. 2. […] PSC 833, a cyclosporin-D analog, was used as a positive control for Pgp antagonism.

In data set [8] the target is Pgp (Pgp-overexpressing S1-B1-20 cells) (Homo sapiens, UniProt P08183). Here is the method:
as §2, §3

The target of data set [9] is T1, Pgp (S1-B1-20 cells) (Homo sapiens, UniProt P08183).
T1 construct: The S1-B1-20 cells overexpress Pgp; endogenous in cells; host or cells: S1-B1-20 (Pgp-overexpressing subline of S1 colon carcinoma cells)
The data set is described as follows: Calcein AM efflux assay (FACS). Format: cell-based. Here is the method: as §2
(§4) Calcein AM can be used to detect both Pgp and MRP-mediated efflux. Calcein permeates the cell in neutral form as an acetomethoxyester, calcein AM. Esterase activity cleaves the AM group leaving calcein as a fluorescent organic anion.

The test system of data set [10] is P-glycoprotein overexpressing S1-B1-20 cells. The data set is described as follows: Confocal microscopy of mitoxantrone / rhodamine 123 accumulation. Format: cell-based, human. On the procedure:
(§5) Cells were seeded in 35 mm glass-bottom microwell dishes (MatTek Corporation, Ashland, Mass.) at a density of 4000 cells/dish and incubated for 48 hours in phenol red-free IMEM supplemented with 10% fetal calf serum. […] The cells were analyzed using a Zeiss LSM 410 confocal laser scanning microscope equipped with a […] argon laser exciting mitoxantrone at 568 nm. Emitted light passed through a 590 nm long-pass filter.

Data set [11] concerns MXR-expressing S1-M1-80 cells. The description is as above. Format: cell-based, human. Here is the method: as §5
Data set [12] concerns the target T2, MRP (MCF-7/VP cells) (Homo sapiens, UniProt P33527).
T2 construct: Calcein is readily effluxed in the MRP-overexpressing MCF-7/VP cells; endogenous in cells; host or cells: MCF-7/VP (maintained in 4 uM VP-16; provided by Dr. Ken Cowan)
Description: Calcein efflux assay (FACS). Format: cell-based. To be noted: at 25 μM, MCF-7/VP cells (data not shown). Here is the method: as §2, §4

Data set [13] has as its system S1-M1-80 cells expressing MXR. Description: In vitro cytotoxicity assay (sulforhodamine B staining). It is filed as cell-based, human. Details: sensitization to topotecan: dose or concentration left out as unconfirmed. On the procedure: as §1
The subject of data set [14] is MRP-overexpressing MCF-7/VP cells. Described as above. It is filed as cell-based, human. On the procedure:
Reversal of resistance was determined in cytotoxicity assays using the sulforhodamine staining (Skehan et al. (1990) J. Natl. Cancer Inst. 82: 1107-1112). Briefly, cells were harvested and seeded at a density of 2000 cells/well for the colon cancer lines and 4000 cells/well for the breast cancer cell lines in flat-bottom 96-well plates. The cells were incubated for 24 h at 37° C. to allow attachment prior to addition of the drugs. Mitoxantrone and topotecan at various concentrations were added to the cells with or without the reversal agent and were incubated at 37° C. in a fully humidified atmosphere of 5% CO2 for 96 h. Each concentration was tested in triplicate and the controls were done in replicates of eight.
After incubation, the cells were fixed in TCA and stained with sulforhodamine B (SRB) solution (0.4% wt/vol in 1% acetic acid) (Sigma Chemical, St Louis, Mo.). Optical densities were read on a Bio-Rad plate reader (Hercules, Calif.) at an absorbance of 540 nm.

The subject of data set [15] is patients. To be noted: cited from earlier work.

Results on one compound are retold here after patent US6521635B1, “Inhibition of MXR transport by acridine derivatives” (priority 2000, dated 2003).

Chain of Pgp (Pgp-overexpressing S1-B1-20 cells) (P08183 whole entry): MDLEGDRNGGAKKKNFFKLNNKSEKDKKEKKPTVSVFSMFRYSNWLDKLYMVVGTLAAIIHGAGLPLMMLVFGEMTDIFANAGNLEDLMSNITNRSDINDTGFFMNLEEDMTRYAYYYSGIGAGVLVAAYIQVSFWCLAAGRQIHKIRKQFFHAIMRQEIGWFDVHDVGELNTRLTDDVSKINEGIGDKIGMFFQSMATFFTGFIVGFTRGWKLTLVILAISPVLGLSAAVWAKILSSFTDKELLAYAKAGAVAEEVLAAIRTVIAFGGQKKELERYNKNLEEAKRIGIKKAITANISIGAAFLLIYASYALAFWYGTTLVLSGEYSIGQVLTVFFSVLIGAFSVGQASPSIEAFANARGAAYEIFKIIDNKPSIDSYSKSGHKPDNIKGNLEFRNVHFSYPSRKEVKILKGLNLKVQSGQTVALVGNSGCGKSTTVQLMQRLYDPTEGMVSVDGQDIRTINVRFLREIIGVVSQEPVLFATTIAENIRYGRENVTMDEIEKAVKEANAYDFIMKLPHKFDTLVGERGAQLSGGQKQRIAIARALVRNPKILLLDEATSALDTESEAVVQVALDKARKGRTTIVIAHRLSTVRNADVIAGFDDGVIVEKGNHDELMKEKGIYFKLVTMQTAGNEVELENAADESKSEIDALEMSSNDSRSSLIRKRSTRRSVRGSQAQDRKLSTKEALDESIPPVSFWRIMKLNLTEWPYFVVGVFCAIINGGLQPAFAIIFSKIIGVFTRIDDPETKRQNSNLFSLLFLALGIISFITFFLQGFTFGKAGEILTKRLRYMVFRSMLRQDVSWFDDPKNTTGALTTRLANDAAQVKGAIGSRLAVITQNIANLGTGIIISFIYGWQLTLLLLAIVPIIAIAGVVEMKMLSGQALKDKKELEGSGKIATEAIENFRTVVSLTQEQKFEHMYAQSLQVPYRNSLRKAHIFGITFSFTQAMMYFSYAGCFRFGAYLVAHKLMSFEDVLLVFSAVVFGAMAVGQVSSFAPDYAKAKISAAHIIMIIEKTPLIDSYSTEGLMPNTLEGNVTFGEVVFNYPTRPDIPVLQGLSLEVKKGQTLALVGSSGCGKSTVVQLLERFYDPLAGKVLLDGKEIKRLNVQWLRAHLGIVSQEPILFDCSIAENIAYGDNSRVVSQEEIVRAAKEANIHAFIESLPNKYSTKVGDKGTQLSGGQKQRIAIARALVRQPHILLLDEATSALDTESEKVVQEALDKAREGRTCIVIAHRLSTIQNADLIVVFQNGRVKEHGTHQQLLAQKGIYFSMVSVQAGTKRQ
T1 sequence (P08183 whole entry): as above
T2 sequence (P33527 whole entry): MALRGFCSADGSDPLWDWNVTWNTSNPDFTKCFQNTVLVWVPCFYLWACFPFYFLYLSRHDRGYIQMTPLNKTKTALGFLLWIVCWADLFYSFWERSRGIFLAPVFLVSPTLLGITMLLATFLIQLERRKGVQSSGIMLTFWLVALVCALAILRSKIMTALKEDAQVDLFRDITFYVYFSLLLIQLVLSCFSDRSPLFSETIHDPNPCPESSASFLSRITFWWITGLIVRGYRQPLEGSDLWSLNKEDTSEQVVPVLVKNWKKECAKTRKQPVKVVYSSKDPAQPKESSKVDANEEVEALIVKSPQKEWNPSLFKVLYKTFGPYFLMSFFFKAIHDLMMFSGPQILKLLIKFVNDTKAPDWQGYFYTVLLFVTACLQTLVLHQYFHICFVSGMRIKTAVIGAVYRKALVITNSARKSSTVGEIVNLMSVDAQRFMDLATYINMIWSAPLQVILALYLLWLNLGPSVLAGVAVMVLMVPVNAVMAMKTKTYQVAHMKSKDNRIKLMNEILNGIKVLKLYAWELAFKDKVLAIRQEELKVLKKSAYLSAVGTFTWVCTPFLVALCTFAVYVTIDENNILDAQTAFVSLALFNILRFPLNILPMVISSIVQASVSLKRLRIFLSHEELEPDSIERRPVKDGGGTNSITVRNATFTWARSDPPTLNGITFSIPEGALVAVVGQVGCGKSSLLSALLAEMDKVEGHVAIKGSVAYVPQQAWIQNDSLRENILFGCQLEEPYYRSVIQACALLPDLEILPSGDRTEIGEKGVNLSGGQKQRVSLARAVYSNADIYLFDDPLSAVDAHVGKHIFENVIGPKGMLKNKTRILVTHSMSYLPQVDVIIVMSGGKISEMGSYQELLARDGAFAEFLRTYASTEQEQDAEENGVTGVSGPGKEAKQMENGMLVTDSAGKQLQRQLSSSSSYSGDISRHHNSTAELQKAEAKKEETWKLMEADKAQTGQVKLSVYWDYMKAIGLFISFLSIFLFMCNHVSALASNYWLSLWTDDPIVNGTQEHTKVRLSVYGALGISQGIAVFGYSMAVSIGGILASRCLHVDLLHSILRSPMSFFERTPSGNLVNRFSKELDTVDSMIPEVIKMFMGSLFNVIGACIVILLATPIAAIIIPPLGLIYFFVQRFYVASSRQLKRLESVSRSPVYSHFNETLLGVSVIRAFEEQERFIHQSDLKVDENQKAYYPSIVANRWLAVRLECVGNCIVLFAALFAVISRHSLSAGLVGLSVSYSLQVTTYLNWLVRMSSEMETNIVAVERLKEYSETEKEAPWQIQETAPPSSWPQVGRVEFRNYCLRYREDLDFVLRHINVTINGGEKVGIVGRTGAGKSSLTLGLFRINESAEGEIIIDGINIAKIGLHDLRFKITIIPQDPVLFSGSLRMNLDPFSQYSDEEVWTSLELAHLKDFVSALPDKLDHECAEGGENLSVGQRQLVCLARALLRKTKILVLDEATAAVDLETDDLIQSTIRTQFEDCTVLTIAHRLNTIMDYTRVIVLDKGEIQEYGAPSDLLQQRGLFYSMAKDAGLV

In turn, `COc1cc2c(cc1OC)CN(CCc1ccc(NC(=O)c3cccc4c(=O)c5cccc(OC)c5[nH]c34)cc1)CC2` [GF120918] displayed an IC50 at 96 h in [1] of 3.6 µM. The IC50 in data set [2] was 15.2 µM; in data set [3] it was 40 µM; in data set [13] (Homo sapiens, S1-M1-80, read-out: IC50 for GF120918 alone, S1-M1-80 cells) it was 2.5 µM; in data set [14] (Homo sapiens, MCF7-VP, read-out: IC50 for GF120918 alone, MCF-7/VP cells), 7.5 µM. Also, the sensitization to mitoxantrone was 31 fold in [4] and 1850 fold in [13] (GF120918 at 1 μM, S1-M1-80 cells expressing MXR). Besides, the “concentrations inhibiting Pgp-mediated efflux” value in data set [5] was “nanomolar concentrations”. The “effect on rhodamine efflux” value in data set [6] was “No effect”. Further, the “effect on rhodamine accumulation and efflux” value in data set [7] was “small increase in rhodamine accumulation and a decrease in efflux”. Also, in [8], the “concentration giving complete inhibition of rhodamine efflux” value was 250 nM. For the same compound, in data set [8], the “lowest concentrations at which rhodamine 123 efflux was decreased” value is 25 to 50 nM. Moreover, in data set [9] (Pgp-expressing S1-B1-20 cells), the “block of calcein AM efflux” value is given as “able to block efflux”. The “type of inhibition of Pgp” value in data set [9] (calcein-AM efflux) is reported as “non-competitive inhibitor”. For the same compound, the “rhodamine 123 accumulation” value in [10] (0.4 μM GF120918) is listed as “enhanced”. In [10] (0.4 μM GF120918 during mitoxantrone incubation (data not shown)), the mitoxantrone fluorescence result is given as “level comparable to that of the parental line”. Further, in data set [11] (0.4 μM GF120918), the “effect on mitoxantrone fluorescence” value was “less marked”. For the same compound, in data set [11] (10 μM and 50 μM GF120918 (data not shown)), the “mitoxantrone level (accumulation, nuclear staining)” value is given as “full reversal had been achieved”. For the same compound, in [11] (S1-M1-80 cells), the “concentration for full reversal of the rhodamine accumulation defect” value amounted to 10 µM. In data set [11] (S1-M1-80 cells (data not shown)), the “concentration at which the rhodamine 123 accumulation defect was reversed” value was determined as 2 µM. Also, in [12], the “reversal of MRP-mediated calcein efflux” value is “only slight reversal”. For the same compound, in [13] (S1-M1-80 cells), the sensitization to topotecan is 23 fold. In addition, in data set [14] (cytotoxicity reversal studies with etoposide, MRP-overexpressing MCF-7 VP-16 cells (data not shown)), the “reversing MRP-mediated resistance” value was “ineffective”. Besides, the “toxicity in phase I clinical trials” value in data set [15] is recorded as “little toxicity”.
